Experimental data from US20260007133A1, “HERBICIDAL COMPOSITION COMPRISING AZINE COMPOUNDS” (BASF SE, priority 2022, published 2026).
Read-outs that look alike come from different tables or passages of the source.

Experiments:
Format in all cases: in vivo
Amaranthus retroflexus [1] = assay: Greenhouse pre-emergence (PRE) herbicidal test on AMARE; settings: Amaranthus retroflexus, pre-emergence
In short: (§1)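 Scoring ran from 0 (normal growth) to 100 (no emergence or above-ground parts fully destroyed) and was done 20 DAT. Application was pre-emergent in pots of loamy sand (~3.0% humus) sown per species. Plants grew at 10-25° C or 20-35° C by species.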

Brachiaria decumbens = assay: Greenhouse pre-emergence (PRE) herbicidal test on BRADC; settings: Urochloa decumbens, use rate 8 gai/ha
In short: (§2)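 Visual rating on a 0 (normal growth) to 100 (no emergence or above-ground kill) scale at 20 DAT. Treatment was pre-emergence spray of aqueous suspension/emulsion right after sowing into loamy sand with ~3.0% humus; covered until rooted, grown at 10-25° C or 20-35° C depending on species.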

Commelina benghalensis = assay: Greenhouse pre-emergence (PRE) herbicidal test on COMBE
In short: as §1

Galium aparine = assay: Greenhouse pre-emergence (PRE) herbicidal test on GALAP; settings: Galium aparine, pre-emergence; PRE; GALAP; use rate 8 gai/ha
In short: as §2

Geranium pusillum = assay: Greenhouse pre-emergence (PRE) herbicidal test on GERPU; settings: Geranium pusillum, pre-emergence, use rate 8 gai/ha
In short: as §2

Lolium multiflorum = assay: Greenhouse pre-emergence (PRE) herbicidal test on LOLMU
In short: as §1

Setaria viridis = assay: Greenhouse pre-emergence (PRE) herbicidal test on SETVI; settings: Setaria viridis, pre-emergence
In short: as §2

Abutilon theophrasti = assay: Greenhouse post-emergence (POST) herbicidal test on ABUTH; settings: Abutilon theophrasti, post-emergence
In short: (§3)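 For this test, compounds formulated as a 5% by weight emulsion concentrate were diluted into spray liquor and applied post-emergence. Species were kept at 10-25° C or 20-35° C and injury was scored at 20 DAT on a 0–100 scale.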

Amaranthus retroflexus [2] = assay: Greenhouse post-emergence (POST) herbicidal test on AMARE; settings: Amaranthus retroflexus, post-emergence
In short: as §3

Digitaria sanguinalis = assay: Greenhouse post-emergence (POST) herbicidal test on DIGSA; settings: Digitaria sanguinalis, post-emergence, POST
In short: as §3

Echinochloa crus-galli = assay: Greenhouse post-emergence (POST) herbicidal test on ECHCG; settings: Echinochloa crus-galli, post-emergence; for inhibition at 4 g/ha: use rate 4 gai/ha
In short: as §3

Euphorbia heterophylla = assay: Greenhouse post-emergence (POST) herbicidal test on EPHHL; settings: Euphorbia heterophylla, post-emergence
In short: as §3

Ipomoea hederacea = assay: Greenhouse post-emergence (POST) herbicidal test on IPOHE; settings: Ipomoea hederacea, post-emergence
In short: as §3

COc1c(Br)cc(F)c(F)c1Nc1nc(N)nc(C(C)(C)F)n1 [Compound I-2]
55%: pest or weed control at 2 g/ha (Amaranthus retroflexus [2]; 432 h, POST, AMARE, I-2 solo 2 gai/ha, 18 DAT)
85%: inhibition at 8 g/ha (Lolium multiflorum; Lolium multiflorum, pre-emergence, 480 h, PRE, use rate 8 gai/ha, 20 DAT, read-out: % activity)
15%: % activity (Commelina benghalensis; PRE, COMBE, use rate 4 gai/ha) | inhibition at 8 g/ha (Galium aparine) | inhibition at 8 g/ha (Lolium multiflorum; Lolium multiflorum, pre-emergence, 480 h, LOLMU PRE, 20 DAT, use rate 8 gai/ha, read-out: % activity) | inhibition at 2 g/ha (Lolium multiflorum; Lolium multiflorum, pre-emergence, 480 h, PRE, LOLMU, 2 gai/ha, 20 DAT, read-out: % activity solo application) | inhibition at 2 g/ha (Lolium multiflorum; Lolium multiflorum, pre-emergence, 480 h, PRE, LOLMU, use rate 2 gai/ha, 20 DAT, read-out: solo application % activity) | inhibition at 2 g/ha (Abutilon theophrasti; 480 h, POST, ABUTH, 2 gai/ha, 20 DAT, read-out: % activity solo application) | pest or weed control at 8 g/ha (Echinochloa crus-galli; 432 h, POST, ECHCG, I-2 solo 8 gai/ha, 18 DAT)
20%: inhibition at 2 g/ha (Commelina benghalensis; Commelina benghalensis, pre-emergence, 480 h, COMBE PRE, 20 DAT, use rate 2 gai/ha, read-out: % activity) | inhibition at 2 g/ha (Lolium multiflorum; Lolium multiflorum, pre-emergence, 480 h, PRE, use rate 2 gai/ha, 20 DAT, read-out: % activity) | pest or weed control at 2 g/ha (Abutilon theophrasti; 432 h, POST, ABUTH, I-2 solo 2 gai/ha, 18 DAT) | pest or weed control at 8 g/ha (Abutilon theophrasti; 432 h, POST, ABUTH, I-2 solo 8 gai/ha, 18 DAT) | inhibition at 8 g/ha (Digitaria sanguinalis; 480 h, DIGSA, 8 gai/ha, 20 DAT, read-out: % activity solo application) | inhibition at 8 g/ha (Digitaria sanguinalis; 480 h, DIGSA, use rate 8 gai/ha, 20 DAT, read-out: solo application % activity)
50%: inhibition at 4 g/ha (Euphorbia heterophylla; 480 h, POST, EPHHL, use rate 4 gai/ha, 20 DAT)
0%: inhibition at 8 g/ha (Geranium pusillum; GERPU PRE) | inhibition at 8 g/ha (Geranium pusillum; PRE, GERPU) | pest or weed control at 2 g/ha (Lolium multiflorum; Lolium multiflorum, pre-emergence, 432 h, PRE, LOLMU, I-2 solo 2 gai/ha, 18 DAT, read-out: % activity) | pest or weed control at 2 g/ha (Digitaria sanguinalis; 432 h, DIGSA, I-2 solo 2 gai/ha, 18 DAT) | inhibition at 2 g/ha (Digitaria sanguinalis; 480 h, DIGSA, 2 gai/ha, 20 DAT, read-out: % activity solo application) | inhibition at 2 g/ha (Digitaria sanguinalis; 480 h, DIGSA, use rate 2 gai/ha, 20 DAT, read-out: solo application % activity) | pest or weed control at 2 g/ha (Echinochloa crus-galli; 432 h, POST, ECHCG, I-2 solo 2 gai/ha, 18 DAT) | inhibition at 2 g/ha (Echinochloa crus-galli; 480 h, ECHCG POST, 20 DAT, use rate 2 gai/ha, read-out: % activity) | inhibition at 4 g/ha (Echinochloa crus-galli; 480 h, POST, ECHCG, 20 DAT)
45%: inhibition at 8 g/ha (Commelina benghalensis; Commelina benghalensis, pre-emergence, 480 h, PRE, COMBE, 8 gai/ha, 20 DAT, read-out: % activity solo application) | inhibition at 8 g/ha (Commelina benghalensis; Commelina benghalensis, pre-emergence, 480 h, PRE, COMBE, use rate 8 gai/ha, 20 DAT, read-out: solo application % activity)
35%: inhibition at 2 g/ha (Lolium multiflorum; Lolium multiflorum, pre-emergence, LOLMU PRE, use rate 2 gai/ha, read-out: % activity) | inhibition at 4 g/ha (Ipomoea hederacea; 480 h, POST, IPOHE, use rate 4 gai/ha, 20 DAT)
30%: % activity (Lolium multiflorum; LOLMU PRE, use rate 2 gai/ha) | pest or weed control at 8 g/ha (Lolium multiflorum; Lolium multiflorum, pre-emergence, 432 h, PRE, LOLMU, I-2 solo 8 gai/ha, 18 DAT) | inhibition at 4 g/ha (Setaria viridis; PRE, SETVI, use rate 4 gai/ha) | inhibition at 8 g/ha (Euphorbia heterophylla; 480 h, POST, EPHHL, 8 gai/ha, 20 DAT, read-out: % activity solo application) | inhibition at 2 g/ha (Ipomoea hederacea; 480 h, IPOHE POST, 20 DAT, use rate 2 gai/ha, read-out: % activity) | pest or weed control at 2 g/ha (Ipomoea hederacea; 480 h, POST, 2 gai/ha, 20 DAT) | inhibition at 2 g/ha (Ipomoea hederacea; 480 h, POST, IPOHE, 2 gai/ha, 20 DAT, read-out: % activity solo application) | inhibition at 2 g/ha (Ipomoea hederacea; POST, IPOHE, use rate 2 gai/ha, read-out: % activity)
80%: pest or weed control at 2 g/ha (Amaranthus retroflexus [1]; 432 h, PRE, AMARE, I-2 solo 2 gai/ha, 18 DAT) | inhibition at 8 g/ha (Brachiaria decumbens; BRADC PRE) | inhibition at 8 g/ha (Geranium pusillum; 480 h, PRE, GERPU, 20 DAT) | inhibition at 8 g/ha (Ipomoea hederacea; 480 h, IPOHE POST, 20 DAT, use rate 8 gai/ha, read-out: % activity) | pest or weed control at 8 g/ha (Ipomoea hederacea; 480 h, POST, 8 gai/ha, 20 DAT)
25%: pest or weed control at 8 g/ha (Commelina benghalensis; Commelina benghalensis, pre-emergence, 432 h, PRE, COMBE, I-2 solo 8 gai/ha, 18 DAT) | inhibition at 8 g/ha (Commelina benghalensis; Commelina benghalensis, pre-emergence, COMBE PRE, use rate 8 gai/ha, read-out: % activity) | inhibition at 2 g/ha (Setaria viridis; 480 h, PRE, SETVI, 2 gai/ha, 20 DAT, read-out: % activity solo application) | inhibition at 4 g/ha (Echinochloa crus-galli; POST, ECHCG) | pest or weed control at 2 g/ha (Euphorbia heterophylla; 432 h, POST, EPHHL, I-2 solo 2 gai/ha, 18 DAT)
10%: inhibition at 2 g/ha (Commelina benghalensis; Commelina benghalensis, pre-emergence, 480 h, PRE, COMBE, 2 gai/ha, 20 DAT, read-out: % activity solo application) | inhibition at 4 g/ha (Commelina benghalensis; Commelina benghalensis, pre-emergence, PRE, COMBE, use rate 4 gai/ha) | inhibition at 2 g/ha (Lolium multiflorum; Lolium multiflorum, pre-emergence, 480 h, LOLMU PRE, 20 DAT, use rate 2 gai/ha, read-out: % activity) | pest or weed control at 2 g/ha (Lolium multiflorum; Lolium multiflorum, pre-emergence, 480 h, PRE, 2 gai/ha, 20 DAT, read-out: % activity) | pest or weed control at 2 g/ha (Setaria viridis; 480 h, PRE, 2 gai/ha, 20 DAT) | inhibition at 2 g/ha (Setaria viridis; 480 h, SETVI PRE, 20 DAT, use rate 2 gai/ha, read-out: % activity) | inhibition at 2 g/ha (Setaria viridis; PRE, SETVI, use rate 2 gai/ha, read-out: % activity) | inhibition at 2 g/ha (Abutilon theophrasti; 480 h, ABUTH POST, 20 DAT, use rate 2 gai/ha, read-out: % activity) | pest or weed control at 2 g/ha (Abutilon theophrasti; 480 h, POST, 2 gai/ha, 20 DAT) | inhibition at 2 g/ha (Euphorbia heterophylla; 480 h, EPHHL POST, 20 DAT, use rate 2 gai/ha, read-out: % activity) | pest or weed control at 2 g/ha (Euphorbia heterophylla; 480 h, POST, 2 gai/ha, 20 DAT) | inhibition at 2 g/ha (Ipomoea hederacea; 480 h, POST, IPOHE, use rate 2 gai/ha, 20 DAT, read-out: % activity)
75%: inhibition at 8 g/ha (Amaranthus retroflexus [2]; 480 h, POST, AMARE, 8 gai/ha, 20 DAT, read-out: % activity solo application) | inhibition at 2 g/ha (Amaranthus retroflexus [2]; 480 h, POST, use rate 2 gai/ha, 20 DAT, read-out: % activity)
90%: inhibition at 8 g/ha (Lolium multiflorum; Lolium multiflorum, pre-emergence, 480 h, PRE, LOLMU, 8 gai/ha, 20 DAT, read-out: % activity solo application)
65%: inhibition at 2 g/ha (Amaranthus retroflexus [2]; 480 h, AMARE POST, 20 DAT, use rate 2 gai/ha, read-out: % activity) | inhibition at 8 g/ha (Amaranthus retroflexus [2]; 480 h, AMARE POST, 20 DAT, use rate 8 gai/ha, read-out: % activity) | pest or weed control at 8 g/ha (Amaranthus retroflexus [2]; 480 h, POST, 8 gai/ha, 20 DAT) | pest or weed control at 8 g/ha (Digitaria sanguinalis; 480 h, 8 gai/ha, 20 DAT)
60%: inhibition at 8 g/ha (Commelina benghalensis; Commelina benghalensis, pre-emergence, 480 h, COMBE PRE, 20 DAT, use rate 8 gai/ha, read-out: % activity) | inhibition at 8 g/ha (Lolium multiflorum; Lolium multiflorum, pre-emergence, PRE, LOLMU, use rate 8 gai/ha, read-out: % activity) | inhibition at 8 g/ha (Euphorbia heterophylla; 480 h, POST, EPHHL, use rate 8 gai/ha, 20 DAT, read-out: % activity)
70%: inhibition at 2 g/ha (Amaranthus retroflexus [1]; 480 h, AMARE PRE, 20 DAT, use rate 2 gai/ha, read-out: % activity) | pest or weed control at 2 g/ha (Amaranthus retroflexus [1]; 480 h, PRE, 2 gai/ha, 20 DAT) | inhibition at 2 g/ha (Amaranthus retroflexus [1]; 480 h, PRE, AMARE, 2 gai/ha, 20 DAT, read-out: % activity solo application) | inhibition at 2 g/ha (Amaranthus retroflexus [1]; 480 h, PRE, AMARE, use rate 2 gai/ha, 20 DAT, read-out: solo application % activity) | inhibition at 8 g/ha (Brachiaria decumbens; PRE, BRADC) | pest or weed control at 2 g/ha (Setaria viridis; 432 h, PRE, SETVI, I-2 solo 2 gai/ha, 18 DAT) | pest or weed control at 8 g/ha (Amaranthus retroflexus [2]; 432 h, POST, AMARE, I-2 solo 8 gai/ha, 18 DAT)
40%: inhibition at 2 g/ha (Lolium multiflorum; Lolium multiflorum, pre-emergence, PRE, LOLMU, use rate 2 gai/ha, read-out: % activity) | inhibition at 8 g/ha (Abutilon theophrasti; 480 h, POST, ABUTH, 8 gai/ha, 20 DAT, read-out: % activity solo application) | inhibition at 8 g/ha (Abutilon theophrasti; 480 h, POST, ABUTH, use rate 8 gai/ha, 20 DAT, read-out: solo application % activity) | inhibition at 2 g/ha (Amaranthus retroflexus [2]; 480 h, POST, AMARE, 2 gai/ha, 20 DAT, read-out: % activity solo application) | inhibition at 2 g/ha (Amaranthus retroflexus [2]; 480 h, POST, AMARE, use rate 2 gai/ha, 20 DAT, read-out: solo application % activity)
